Consider two compounds from ChEMBL document CHEMBL3217441, “Aromatic chloride to nitrile transformation: medicinal and synthetic chemistry” (Medchemcomm, 2010).

Data set [1] is described as follows: Half life in human liver microsomes. Type of data set: ADME. A general note: Microsomes from liver hold many membrane-bound enzymes, among them those of drug oxidation.
Data set [2] in a line: Lipophilicity, log D of the compound at pH 7.4. The settings on record: buffer. Type of data set: physicochemical.
Data set [3] can be described thus: Inhibition of HIV-1 RDDP after 30 mins by scintillation counting analysis in presence of [3H]-TTP. Also on record: species or system Human immunodeficiency virus 1.

The term half-life denotes the time in which the quantity being followed falls by half. The low end stands for rapid decline, the high end for slow decline. Usually logD stands for the decadic logarithm of the distribution of all forms, ionised or not, between an organic phase and buffer at a given pH. High values mean higher lipophilicity, low ones lower lipophilicity. In general, IC50 refers to the concentration that inhibits the measured activity by half. `CCc1nc(C)n(CC)c1Oc1cc(Cl)cc(C#N)c1` had a half-life in data set [1] of 16 min. Besides, the log distribution coefficient (logD) in data set [2] stood at 3.2. In data set [3], the IC50 is 18 nM.
In the same order, the values of `CCc1nc(C)n(CC)c1Oc1cc(C#N)cc(C#N)c1` are 101 min, 1.9 and 131 nM.
